PubChem BioAssay (NCI)
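Cells were grown in 96-well plates and exposed to each compound for 48 hours at five concentrations; endpoints were interpolated linearly between bracketing concentrations, or set to the highest concentration if not reached. At the TGI there is no net growth.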

Assays:
Test in all cases: DTP human tumour cell line panel, 48 h
[1] = test system: TK-10 renal
[2] = test system: CCRF-CEM leukemia
[3] = test system: CAKI-1 renal
[4] = test system: U251 CNS
[5] = test system: HCC-2998 colon
[6] = test system: SNB-75 CNS
[7] = test system: K-562 leukemia
[8] = test system: MOLT-4 leukemia
[9] = test system: UO-31 renal
[10] = test system: OVCAR-5 ovarian
[11] = test system: RPMI-8226 leukemia
[12] = test system: NCI-H23 lung
[13] = test system: IGROV1 ovarian
[14] = test system: MALME-3M melanoma
[15] = test system: UACC-257 melanoma
[16] = test system: COLO 205 colon
[17] = test system: 786-0 renal
[18] = test system: SF-295 CNS
[19] = test system: SW-620 colon
[20] = test system: SK-MEL-2 melanoma
[21] = test system: SF-268 CNS
[22] = test system: M14 melanoma
[23] = test system: LOX IMVI melanoma
[24] = test system: SNB-19 CNS
[25] = test system: SNB-78 CNS
[26] = test system: UACC-62 melanoma
[27] = test system: DLD-1 colon
[28] = test system: DMS 273 small cell lung
[29] = test system: SK-MEL-28 melanoma
[30] = test system: A498 renal
[31] = test system: DMS 114 small cell lung
[32] = test system: OVCAR-4 ovarian
[33] = test system: EKVX NSCLC
[34] = test system: HCT-15 colon
[35] = test system: NCI-H226 lung
[36] = test system: OVCAR-3 ovarian
[37] = test system: KM12 colon
[38] = test system: KM20L2 colon
[39] = test system: HL-60(TB) leukemia
[40] = test system: SF-539 CNS
[41] = test system: HOP-62 NSCLC
[42] = test system: A549 NSCLC
[43] = test system: SK-OV-3 ovarian
[44] = test system: OVCAR-8 ovarian
[45] = test system: XF 498 CNS
[46] = test system: ACHN renal
[47] = test system: HOP-18 NSCLC
[48] = test system: NCI-H460 lung
[49] = test system: M19-MEL melanoma
[50] = test system: HOP-92 NSCLC
[51] = test system: HT29 colon
[52] = test system: HCT-116 colon
[53] = test system: SK-MEL-5 melanoma
[54] = test system: SN12C renal
[55] = test system: NCI-H522 lung
[56] = test system: LXFL 529 NSCLC

What does the source list for `O=C1Cc2ccccc2N1/N=C\c1ccc([N+](=O)[O-])cc1`?
TGI [1]: > 100 µM; TGI [2]: > 100 µM; TGI [3]: > 100 µM; TGI [4]: > 100 µM; TGI [5]: > 100 µM; TGI [6]: > 100 µM; TGI [7]: > 100 µM; TGI [8]: > 100 µM; TGI [9]: > 100 µM; TGI [10]: > 100 µM; TGI [11]: > 100 µM; TGI [12]: > 100 µM; TGI [13]: > 100 µM; TGI [14]: > 100 µM; TGI [15]: > 100 µM; TGI [16]: > 100 µM; TGI [17]: > 100 µM; TGI [18]: > 100 µM; TGI [19]: > 100 µM; TGI [20]: > 100 µM; TGI [21]: > 100 µM; TGI [22]: > 100 µM; TGI [23]: > 100 µM; TGI [24]: > 100 µM; TGI [25]: > 100 µM; TGI [26]: > 100 µM; TGI [27]: > 100 µM; TGI [28]: > 100 µM; TGI [29]: > 100 µM; TGI [30]: > 100 µM; TGI [31]: > 100 µM; TGI [32]: > 100 µM; TGI [33]: > 100 µM; TGI [34]: > 100 µM; TGI [35]: > 100 µM; TGI [36]: > 100 µM; TGI [37]: > 100 µM; TGI [38]: > 100 µM; TGI [39]: > 100 µM; TGI [40]: > 100 µM; TGI [41]: > 100 µM; TGI [42]: > 100 µM; TGI [43]: > 100 µM; TGI [44]: > 100 µM; TGI [45]: > 100 µM; TGI [46]: > 100 µM; TGI [47]: > 100 µM; TGI [48]: > 100 µM; TGI [49]: > 100 µM; TGI [50]: > 100 µM; TGI [51]: > 100 µM; TGI [52]: > 100 µM; TGI [53]: > 100 µM

`O/N=C(\C(=N/O)Nc1ccc(-c2ccc(NC(=N/O)/C(=N\O)c3ccccc3)cc2)cc1)c1ccccc1` was tested. Which TGI [1] did it give?
The TGI was 82.4 µM.

And the TGI [2]?
Its TGI is 46.3 µM.

What about the TGI [3] of the same compound?
The TGI was 62.9 µM.

What about the TGI [54] of the same compound?
The TGI was 97.3 µM.

What about the TGI [4] of the same compound?
The TGI was 60.9 µM.

What about the TGI [5] of the same compound?
Its TGI is 18.7 µM.

What about the TGI [7] of the same compound?
The TGI was 44 µM.

What about the TGI [55] of the same compound?
Its TGI is 33.3 µM.

What about the TGI [8] of the same compound?
Its TGI is 41.3 µM.

And the TGI [56]?
The TGI was 32.2 µM.

And the TGI [9]?
The TGI was 82.9 µM.

What about the TGI [10] of the same compound?
Its TGI is 27.5 µM.

What about the TGI [11] of the same compound?
Its TGI is 57.9 µM.

And the TGI [12]?
Its TGI is 32.1 µM.

What about the TGI [13] of the same compound?
The TGI was 57.6 µM.

And the TGI [14]?
The TGI was 44.7 µM.

And the TGI [15]?
The TGI was 80.6 µM.

What about the TGI [16] of the same compound?
Its TGI is 30.4 µM.

What about the TGI [17] of the same compound?
Its TGI is 41.4 µM.

What about the TGI [18] of the same compound?
Its TGI is 37.4 µM.

And the TGI [19]?
Its TGI is 49.8 µM.

And the TGI [20]?
Its TGI is 36.3 µM.

And the TGI [21]?
Its TGI is 69.2 µM.

What about the TGI [22] of the same compound?
The TGI was 32.8 µM.

What about the TGI [23] of the same compound?
The TGI was 29.1 µM.

What about the TGI [24] of the same compound?
The TGI was 50.7 µM.

And the TGI [25]?
Its TGI is 97.4 µM.

What about the TGI [26] of the same compound?
Its TGI is 35.4 µM.

And the TGI [27]?
Its TGI is 53.8 µM.

What about the TGI [28] of the same compound?
Its TGI is 36.3 µM.

What about the TGI [30] of the same compound?
Its TGI is 51 µM.

And the TGI [33]?
Its TGI is 57.9 µM.

And the TGI [34]?
The TGI was 70 µM.

What about the TGI [35] of the same compound?
Its TGI is 69.2 µM.

And the TGI [36]?
The TGI was 40.2 µM.

And the TGI [37]?
The TGI was 33.6 µM.

And the TGI [38]?
Its TGI is 36.5 µM.

And the TGI [39]?
Its TGI is 55.6 µM.

What about the TGI [40] of the same compound?
Its TGI is 35.3 µM.

What about the TGI [41] of the same compound?
Its TGI is 30.1 µM.

What about the TGI [42] of the same compound?
Its TGI is 79.1 µM.

And the TGI [43]?
Its TGI is 33.8 µM.

And the TGI [44]?
The TGI was 45 µM.

What about the TGI [45] of the same compound?
Its TGI is 41.3 µM.

What about the TGI [46] of the same compound?
Its TGI is 97.2 µM.

What about the TGI [47] of the same compound?
The TGI was 37.3 µM.

What about the TGI [48] of the same compound?
The TGI was 32.4 µM.

And the TGI [49]?
The TGI was 31.4 µM.

What about the TGI [50] of the same compound?
Its TGI is 58.1 µM.

What about the TGI [51] of the same compound?
The TGI was 29.2 µM.

And the TGI [52]?
The TGI was 34.6 µM.

And the TGI [53]?
Its TGI is 34.8 µM.
